# Data taken from PubChem BioAssay AID330 (DTP/NCI, 2004).
# Where “and” joins values, the source holds several entries; their conditions need not be identical. Identical values can stand only once. Toxic doses and inconclusive results are not listed.
# System: P388 leukemia ip, CD2F1 mice, survival T/C
# Experiment: NCI In Vivo Anticancer Drug Screen. Data for tumor model P388 Leukemia (intraperitoneal) in CD2F1 (CDF1) mice
# Conditions: endpoint: median survival time, higher = longer survival
# Procedure, shortened: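 Mice carrying the transplanted tumor received test compound or vehicle. Survival was recorded in each group, and the value is the treated-group measurement divided by that of the vehicle-treated control group.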
# [1] = dose: 25.0 mg/kg/injection, schedule: Q01DX009 (ip), vehicle: saline with Tween-80
# [2] = dose: 50.0 mg/kg/injection, schedule: Q01DX009 (ip), vehicle: saline with Tween-80
# [3] = dose: 100.0 mg/kg/injection, schedule: Q01DX009 (ip), vehicle: saline with Tween-80
# [4] = dose: 200.0 mg/kg/injection, schedule: Q01DX009 (ip), vehicle: saline with Tween-80
structure (smiles),measurement,setting,value
Cc1cc(=O)oc2cc(OC(=O)C(CCCCN)NC(=O)OCc3ccccc3)ccc12 (centres undefined),T/C,"dose: 6.25 mg/kg/injection, schedule: Q01DX009 (ip), vehicle: other",101 % of control
same,T/C,"dose: 12.5 mg/kg/injection, schedule: Q01DX009 (ip), vehicle: other",99 % of control
same,T/C,"dose: 25.0 mg/kg/injection, schedule: Q01DX009 (ip), vehicle: other",121 % of control
same,T/C,"dose: 50.0 mg/kg/injection, schedule: Q01DX009 (ip), vehicle: other",114 % of control
same,T/C,"dose: 100.0 mg/kg/injection, schedule: Q01DX009 (ip), vehicle: other",117 % of control
COC(=O)Cn1/c(=N\N=C\c2ccc([N+](=O)[O-])cc2)sc2ccccc21,T/C,"dose: 12.5 mg/kg/injection, schedule: Q01DX001 (ip), vehicle: saline with Tween-80",86 % of control
same,T/C,"dose: 25.0 mg/kg/injection, schedule: Q01DX001 (ip), vehicle: saline with Tween-80",86 % of control
same,T/C,"dose: 50.0 mg/kg/injection, schedule: Q01DX001 (ip), vehicle: saline with Tween-80",92 % of control
same,T/C,"dose: 400.0 mg/kg/injection, schedule: Q01DX001 (ip), vehicle: saline with Tween-80",90 % of control
COc1cccc2c1C(=O)c1c(O)c3c(c(O)c1C2=O)CC(O)(C(C)=O)CC3OC1CC(SC)C(OC(C)=O)C(C)O1 (centres undefined),T/C,"dose: 3.13 mg/kg/injection, schedule: Q04DX003 (ip), vehicle: distilled water + Tween-80",100 % of control
same,T/C,"dose: 3.13 mg/kg/injection, schedule: Q04DX003 (ip), vehicle: water",101 % of control
same,T/C,"dose: 6.25 mg/kg/injection, schedule: Q04DX003 (ip), vehicle: distilled water + Tween-80",105 % of control
same,T/C,"dose: 6.25 mg/kg/injection, schedule: Q04DX003 (ip), vehicle: water",96 % of control
same,T/C,"dose: 12.5 mg/kg/injection, schedule: Q04DX003 (ip), vehicle: distilled water + Tween-80",97 % of control
same,T/C,"dose: 12.5 mg/kg/injection, schedule: Q04DX003 (ip), vehicle: water",97 % of control
same,T/C,"dose: 25.0 mg/kg/injection, schedule: Q04DX003 (ip), vehicle: distilled water + Tween-80",100 % of control
same,T/C,"dose: 25.0 mg/kg/injection, schedule: Q04DX003 (ip), vehicle: water",100 % of control
same,T/C,"dose: 50.0 mg/kg/injection, schedule: Q04DX003 (ip), vehicle: distilled water + Tween-80",110 % of control
same,T/C,"dose: 50.0 mg/kg/injection, schedule: Q04DX003 (ip), vehicle: water",96 % of control
O=C(N/N=C/c1cc(Cl)cc(Cl)c1[O-])c1ccccc1.O=C(N/N=C/c1cc(Cl)cc(Cl)c1[O-])c1ccccc1.[Fe+2],T/C,"dose: 100.0 mg/kg/injection, schedule: Q04DX002 (ip), vehicle: saline with Tween-80",98 % of control
same,T/C,"dose: 200.0 mg/kg/injection, schedule: Q04DX002 (ip), vehicle: saline with Tween-80",103 % of control
same,T/C,"dose: 400.0 mg/kg/injection, schedule: Q04DX002 (ip), vehicle: saline with Tween-80",100 % of control
CN=c1ccc2cc3ccc(NC)cc3oc-2c1,T/C,"dose: 50.0 mg/kg/injection, schedule: Q01DX005 (ip), vehicle: saline",92 % of control
same,T/C,"dose: 100.0 mg/kg/injection, schedule: Q01DX005 (ip), vehicle: saline",89 % of control
COc1cc(/C=C/[N+](=O)[O-])c(OC)cc1Br,T/C,[1],122 % of control
NC(CNC(=O)CBr)C(=O)O (centres undefined),T/C,"dose: 6.25 mg/kg/injection, schedule: Q01DX005 (ip), vehicle: water",117 % of control and 118 % of control
same,T/C,"dose: 100.0 mg/kg/injection, schedule: Q01DX005 (ip), vehicle: water",152 % of control
O=C1CCC(=O)N1CNCCc1cc(Cl)cc(Cl)c1O,T/C,[2],102 % of control
same,T/C,[3],103 % of control
same,T/C,[4],94 % of control
O=C(CCCBr)c1ccccc1,T/C,[1],107 % of control
same,T/C,[2],100 % of control
same,T/C,[3],107 % of control
same,T/C,[4],100 % of control
Cc1nn(C(=S)S)c(C)c1N=Nc1ccc(O)cc1,T/C,"dose: 50.0 mg/kg/injection, schedule: Q01DX005 (ip), vehicle: saline with Tween-80",100 % of control
same,T/C,"dose: 100.0 mg/kg/injection, schedule: Q01DX005 (ip), vehicle: saline with Tween-80",102 % of control
same,T/C,"dose: 200.0 mg/kg/injection, schedule: Q01DX005 (ip), vehicle: saline with Tween-80",101 % of control
CC(C)(C)c1cc(C#CC#Cc2cc(C(C)(C)C)cc(C(C)(C)C)c2)cc(C(C)(C)C)c1,T/C,"dose: 25.0 mg/kg/injection, schedule: Q01DX005 (ip), vehicle: Klucel (hydroxypropylcellulose) (HPC)",86 % of control
same,T/C,"dose: 50.0 mg/kg/injection, schedule: Q01DX005 (ip), vehicle: Klucel (hydroxypropylcellulose) (HPC)",86 % of control
